According to patent US20040023886A1, “Method for treating neurological conditions and inducing immunosuppression with cephaibols” (Aventis Pharma Deutschland Gmbh, priority 2002, published 2004):
Entries after “also recorded” stand apart in the source; their conditions may differ. Where a SMILES comes first, the peptide text is derived from it. [ ]: non-standard residue; d: D form. Hyp = O=C(O)[CH]1C[CH](O)CN1; Phe(ol) = N[CH](CO)Cc1ccccc1; Iva = CC[C](C)(N)C(=O)O; Aib = CC(C)(N)C(=O)O

Experiments:
laboratory mice [1] = test: Influence on spontaneous motility (neuroleptic effect, mouse model); format: in vivo; settings: 10 mg/kg intraperitoneal, observed from 5 min up to 24 hours
Procedure: (§1) Neuroleptic effect of the cephaibols in the mouse model
The influence of cephaibols A, B, C, D and E on motoricity in laboratory mice was observed over various periods of time (from 5 min up to 24 hours).
Fright reactions (noises) were retained, thereby ruling out the possibility of the cephaibols having a narcotic effect in the experimental arrangement.

laboratory mice [2] = test: Hypothermia (neuroleptic effect, mouse model); format: in vivo; settings: 10 mg/kg intraperitoneal
From the text: as §1

Phoma destructiva = test: Induction of pigment formation in Phoma destructiva, punched-hole plate agar diffusion test; format: cell-based; settings: 50 µL of test solution per hole, 20 to 25° C., 4 to 5 days
From the text: The induction of pigment formation in the fungus Phoma destructiva is a test model for, inter alia, identifying a potential immunosuppressant effect in test substances. The implementation of the Phoma destructiva test has been described by K. Dornberger et al. in J. Antibiotics, §, 977-989,1995.
The organism Phoma destructiva is a fungus which is known to be pathogenic to plants and which grows, in feebly colored colonies, on agar plates which have been inoculated with vegetative mycelium. Cell differentiation processes, which are accompanied by the formation of a pigment and therefore enable cell differentiation to be detected, are initiated under the influence of special inducers. The pigment, which is a melanin-like substance, can be recognized by its color and quantified photometrically or by measuring the zone size.
The fungus Phoma destructiva was cultured on sloping agar tubes containing culture medium A or B at from 20 to 25° C. and then stored at from 4 to 6° C. and reinoculated in a 2-year rhythm.
The fungus Phoma destructiva was cultured at from 20 to 25° C. for 11 days on medium B in 100 mm diameter petri dishes and, after that, washed off with 10 ml of a sterile 0.9% solution of NaCl. The wash-off can be used for 5 days when stored at 8° C.
The agar diffusion test method was a modification of the standardized agar diffusion assay described in the European Pharmacopoeia [Deutscher Apothekerverlag Stuttgart, pages 113-118, 1997]: 40 mL of test agar medium were liquefied and brought to a constant temperature of 50° C.; from 8 to 10 mL of the inoculation culture were added under sterile conditions and the mixture was then poured into 150 mm diameter test plates. After the plates had cooled, 12 punched holes of 9 mm in diameter were arranged on the plate using a punching implement [J, V. Benett et al. Appl. Micr.1.1;, 170-177, 1966]. The test holes were loaded with 50JiL of the solution to be tested, with one test hole containing cyclosporin as the control substance (1 μg of cyclosporin A in 50 μL of methanol). […]

platelet aggregation = settings: literature; cited from earlier work

Compound	motoricity (climbing) in comparison with the control mice (laboratory mice [1])	body temperature as compared with the control animals (laboratory mice [2])	pigment formation in Phoma destructiva (Phoma destructiva)	platelet aggregation (platelet aggregation)
CCC(C)(NC(=O)C(CC(C)C)NC(=O)CNC(=O)C(C)(C)NC(=O)C(C)(C)NC(=O)C(C)(C)NC(=O)C(C)(C)NC(=O)C(Cc1ccccc1)NC(C)=O)C(=O)NC(C)(C)C(=O)N1CC(O)CC1C(=O)NC(CCC(N)=O)C(=O)NC(C)(CC)C(=O)N1CC(O)CC1C(=O)NC(C)(C)C(=O)N1CCCC1C(=O)NC(CO)Cc1ccccc1 (stereo not drawn) [cephaibol A, AcPhe-Aib-Aib-Aib-Aib-Gly-Leu-Iva-Aib-Hyp-Gln-Iva-Hyp-Aib-Pro-Phe-ol] (Ac-F[Aib][Aib][Aib][Aib]GL[Iva][Aib][Hyp]Q[Iva][Hyp][Aib]P[Phe(ol)]; configuration not given here)	impaired	marked reduction	particularly pronounced	–
CCC(C)(NC(=O)C(CC(C)C)NC(=O)CNC(=O)C(C)(CC)NC(=O)C(C)(C)NC(=O)C(C)(C)NC(=O)C(C)(C)NC(=O)C(Cc1ccccc1)NC(C)=O)C(=O)NC(C)(C)C(=O)N1CC(O)CC1C(=O)NC(CCC(N)=O)C(=O)NC(C)(CC)C(=O)N1CC(O)CC1C(=O)NC(C)(C)C(=O)N1CCCC1C(=O)NC(CO)Cc1ccccc1 (stereo not drawn) [cephaibol B, AcPhe-Aib-Aib-Aib-Iva-Gly-Leu-Iva-Aib-Hyp-Gln-Iva-Hyp-Aib-Pro-Phe-ol] (Ac-F[Aib][Aib][Aib][Iva]GL[Iva][Aib][Hyp]Q[Iva][Hyp][Aib]P[Phe(ol)]; configuration not given here)	impaired; also recorded: particularly pronounced	marked reduction; also recorded: particularly pronounced	particularly pronounced	–
CCC(C)(NC(=O)C(CC(C)C)NC(=O)CNC(=O)C(C)(C)NC(=O)C(C)(C)NC(=O)C(C)(C)NC(=O)C(C)(C)NC(=O)C(Cc1ccccc1)NC(C)=O)C(=O)NC(C)(C)C(=O)N1CC(O)CC1C(=O)NC(CCC(N)=O)C(=O)NC(C)(C)C(=O)N1CC(O)CC1C(=O)NC(C)(C)C(=O)N1CCCC1C(=O)NC(CO)Cc1ccccc1 (stereo not drawn) [cephaibol C, AcPhe-Aib-Aib-Aib-Aib-Gly-Leu-Iva-Aib-Hyp-Gln-Aib-Hyp-Aib-Pro-Phe-ol] (Ac-F[Aib][Aib][Aib][Aib]GL[Iva][Aib][Hyp]Q[Aib][Hyp][Aib]P[Phe(ol)]; configuration not given here)	impaired; also recorded: particularly pronounced	marked reduction; also recorded: particularly pronounced	particularly pronounced	–
CCC(C)(NC(=O)C(CC(C)C)NC(=O)CNC(=O)C(C)(C)NC(=O)C(C)(C)NC(=O)C(C)(C)NC(=O)C(C)(C)NC(=O)C(Cc1ccccc1)NC(C)=O)C(=O)NC(C)(C)C(=O)N1CC(O)CC1C(=O)NC(CCC(N)=O)C(=O)NC(C)(C)C(=O)N1CC(O)CC1C(=O)NC(C)(C)C(=O)N1CCCC1C(=O)NC(CO)Cc1ccccc1 (stereo not drawn) [cephaibol D, AcPhe-Aib-Aib-Aib-Aib-Gly-Leu-Aib-Aib-Hyp-Gln-Aib-Hyp-Aib-Pro-Xaa5] (Ac-F[Aib][Aib][Aib][Aib]GL[Iva][Aib][Hyp]Q[Aib][Hyp][Aib]P[Phe(ol)]; configuration not given here)	impaired	–	–	–
Clonostachin	–	–	–	inhibits
